Data taken from patent US9108983B2, “Pyrrole compounds, a process for their preparation and pharmaceutical compositions containing them” (LES LABORATOIRES SERVIER, priority 2013, dated 2015).
Where a name gives a salt, the structure may show the parent alone.

Legend:
Bcl-2 protein = Bcl-2 protein (histag-Bcl-2, UniProtKB P10415) (Homo sapiens (Human), UniProt P10415); test: Inhibition of Bcl-2 by the fluorescence polarisation technique; format: binding; conditions: incubation for 2 hours, read-out: IC50 (nM) Bcl-2 FP
Chain of Bcl-2 protein (P10415 whole entry): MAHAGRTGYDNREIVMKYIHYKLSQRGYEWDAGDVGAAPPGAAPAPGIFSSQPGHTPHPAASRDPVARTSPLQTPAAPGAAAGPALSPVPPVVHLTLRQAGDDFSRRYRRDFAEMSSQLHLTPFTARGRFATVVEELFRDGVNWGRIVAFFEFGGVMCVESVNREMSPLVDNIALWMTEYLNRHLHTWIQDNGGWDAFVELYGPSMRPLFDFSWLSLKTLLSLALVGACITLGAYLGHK
Summary of the method: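 In pH 7.4 buffer (Hepes 10 mM, NaCl 150 mM, Tween20 0.05%), test compounds at increasing concentrations competed with a fluorescein peptide (1.00×10^−8 M final) for histag-Bcl-2 (2.50×10^−8 M final). Readout was fluorescence polarisation after a 2 h incubation.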

[1] = tested on: RS4;11 leukaemia tumour line; test: In vitro cytotoxicity (Microculture Tetrazolium Assay); format: cell-based; conditions: Homo sapiens, RS4-11, 48 h, RS4;11 cells, exposed for 48 hours, cell viability; read-out: IC50 (nM) MTT RS4;11
Description: The cytotoxicity studies were carried out on the RS4;11 leukaemia tumour line.
The cells are distributed onto microplates and exposed to the test compounds for 48 hours.
The cell viability is then quantified by a colorimetric assay, the Microculture Tetrazolium Assay (Cancer Res., 1987, 47, 939-942).

SMILES: Cc1c(C(=O)N(c2ccc(O)cc2)c2cnc3c(ccn3C)c2)cc(-c2cc(Cl)ccc2C(=O)N2Cc3ccccc3C[C@H]2CCCN2CCOCC2)n1C [Example 393, 5-(5-Chloro-2-{[(3R)-3-[3-(morpholin-4-yl)propyl]-3,4-dihydroisoquinolin-2(1H)-yl]carbonyl}phenyl)-N-(4-hydroxyphenyl)-1,2-dimethyl-N-(1-methyl-1H-pyrrolo[2,3-b]pyridin-5-yl)-1H-pyrrole-3-carboxamide hydrochloride]
- IC50 (Bcl-2 protein): 2.1 nM
- IC50 [1]: 1.95 nM

SMILES: Cc1c(C(=O)N(c2ccc(O)cc2)c2cnc3c(c2)CCN3C)cc(-c2ccccc2C(=O)N2Cc3ccccc3C[C@H]2CN2CCOCC2)n1C [Example 410, N-(4-Hydroxyphenyl)-1,2-dimethyl-N-(1-methyl-2,3-dihydro-1H-pyrrolo[2,3-b]pyridin-5-yl)-5-(2-{[(3S)-3-(morpholin-4-ylmethyl)-3,4-dihydroisoquinolin-2(1H)-yl]carbonyl}phenyl)-1H-pyrrole-3-carboxamide hydrochloride]
- IC50 (Bcl-2 protein): 9.9 nM
- IC50 [1]: 61.6 nM

SMILES: Cc1cc(N(C(=O)c2cc(-c3cc(Cl)ccc3C(=O)N3Cc4ccccc4C[C@H]3CN3CCOCC3)n(C)c2C)c2ccc(O)cc2)no1 [Example 462, 5-(5-Chloro-2-{[(3S)-3-(morpholin-4-ylmethyl)-3,4-dihydroisoquinolin-2(1H)-yl]carbonyl}phenyl)-N-(4-hydroxyphenyl)-1,2-dimethyl-N-(5-methyl-1,2-oxazol-3-yl)-1H-pyrrole-3-carboxamide]
- IC50 (Bcl-2 protein): 13.3 nM
- IC50 [1]: 368 nM

SMILES: COc1cc(C(=O)N2Cc3ccccc3C[C@H]2CN2CCOCC2)c(-c2[nH]c(C)c(C(=O)N(c3ccc(O)cc3)c3cnn(C)c3)c2C)cc1F [Example 100, 5-(5-Fluoro-4-methoxy-2-{[(3S)-3-(morpholin-4-ylmethyl)-3,4-dihydroisoquinolin-2(1H)-yl]carbonyl}phenyl)-N-(4-hydroxyphenyl)-4,2-dimethyl-N-(1-methyl-1H-pyrazol-4-yl)-1H-pyrrole-3-carboxamide hydrochloride]
- IC50 (Bcl-2 protein): 22.9 nM
- IC50 [1]: 193 nM

SMILES: Cc1c(C(=O)N(c2ccc(O)cc2)c2cnn(C)c2)cc(-c2cc3c(cc2C(=O)N2Cc4ccccc4C[C@H]2C)OCO3)n1CCN [Example 30, 1-(2-Aminoethyl)-N-(4-hydroxyphenyl)-2-methyl-5-(6-{[(3R)-3-methyl-3,4-dihydroisoquinolin-2(1H)-yl]carbonyl}-1,3-benzodioxol-5-yl)-N-(1-methyl-1H-pyrazol-4-yl)-1H-pyrrole-3-carboxamide hydrochloride]
- IC50 (Bcl-2 protein): 4.7 nM
- IC50 [1]: 771 nM

SMILES: Cc1c(C(=O)N(c2ccccc2)c2ccc(O)cc2)cc(-c2cc3c(cc2C(=O)N2Cc4ccccc4C[C@H]2CCN2CCOCC2)OCO3)n1CCO [Example 18, 1-(2-Hydroxyethyl)-N-(4-hydroxyphenyl)-2-methyl-5-(6-{[(3S)-3-[2-(morpholin-4-yl)ethyl]-3,4-dihydroisoquinolin-2(1H)-yl]carbonyl}-1,3-benzodioxol-5-yl)-N-phenyl-1H-pyrrole-3-carboxamide hydrochloride]
- IC50 (Bcl-2 protein): 3.9 nM
- IC50 [1]: 27.6 nM

SMILES: C[C@@H]1Cc2ccccc2CN1C(=O)c1cc2c(cc1-c1cc(C(=O)N(c3ccc(O)cc3)c3cnn(C)c3)c(CN3CCOCC3)n1C)OCO2 [Example 82, N-(4-Hydroxyphenyl)-1-methyl-5-(6-{[(3R)-3-methyl-3,4-dihydroisoquinolin-2(1H)-yl]carbonyl}-1,3-benzodioxol-5-yl)-N-(1-methyl-1H-pyrazol-4-yl)-2-(morpholin-4-ylmethyl)-1H-pyrrole-3-carboxamide]
- IC50 (Bcl-2 protein): 19.5 nM
- IC50 [1]: 427 nM

SMILES: Cc1c(C(=O)N(c2ccccc2)c2ccc(O)cc2)cc(-c2cc(Cl)ccc2C(=O)N2Cc3ccccc3C[C@H]2CCCN2CCOCC2)n1C [Example 392, 5-(5-Chloro-2-{[(3R)-3-[3-(morpholin-4-yl)propyl]-3,4-dihydroisoquinolin-2(1H)-yl]carbonyl}phenyl)-N-(4-hydroxyphenyl)-1,2-dimethyl-N-phenyl-1H-pyrrole-3-carboxamide hydrochloride]
- IC50 (Bcl-2 protein): 3.8 nM
- IC50 [1]: 11.4 nM

SMILES: Cc1c(C(=O)N(c2ccncc2)c2ccc(O)cc2)cc(-c2cc(F)ccc2C(=O)N2Cc3ccccc3C[C@H]2CN2CCOCC2)n1C [Example 384, 5-(5-Fluoro-2-{[(3S)-3-(morpholin-4-ylmethyl)-3,4-dihydroisoquinolin-2(1H)-yl]carbonyl}phenyl)-N-(4-hydroxyphenyl)-1,2-dimethyl-N-(pyridin-4-yl)-1H-pyrrole-3-carboxamide hydrochloride]
- IC50 (Bcl-2 protein): 9.7 nM
- IC50 [1]: 216 nM

SMILES: Cl.[2H]C([2H])([2H])n1cc(N(C(=O)c2cc(-c3cc(Cl)ccc3C(=O)N3Cc4ccccc4C[C@H]3CN3CCOCC3)n(C)c2C)c2ccc(O)cc2)cn1 [Example 416, 5-(5-Chloro-2-{[(3S)-3-(morpholin-4-ylmethyl)-3,4-dihydroisoquinolin-2(1H)-yl]carbonyl}phenyl)-N-(4-hydroxyphenyl)-1,2-dimethyl-N-[1-(trideuteriomethyl)-1H-pyrazol-4-yl]-1H-pyrrole-3-carboxamide hydrochloride]
- IC50 (Bcl-2 protein): 2.9 nM
- IC50 [1]: 42.5 nM

SMILES: Cc1c(C(=O)N(c2ccncc2)c2ccc(O)cc2)cc(-c2cc(Cl)ccc2C(=O)N2Cc3ccccc3C[C@H]2CN2CCOCC2)n1C [Example 74, 5-(5-Chloro-2-{[(3S)-3-(morpholin-4-ylmethyl)-3,4-dihydroisoquinolin-2(1H)-yl]carbonyl}phenyl)-N-(4-hydroxyphenyl)-1,2-dimethyl-N-(pyridin-4-yl)-1H-pyrrole-3-carboxamide hydrochloride]
- IC50 (Bcl-2 protein): 4 nM
- IC50 [1]: 45.4 nM

SMILES: CCn1cc(C(=O)N(c2ccc(O)cc2)c2ccc3c(ccn3C)c2)cc1-c1cc(Cl)ccc1C(=O)N1Cc2ccccc2C[C@H]1CN1CCN(C)CC1 [Example 6, 5-(5-Chloro-2-{[(3S)-3-[(4-methylpiperazin-1-yl)methyl]-3,4-dihydroisoquinolin-2(1H)-yl]carbonyl}phenyl)-1-ethyl-N-(4-hydroxyphenyl)-N-(1-methyl-1H-indol-5-yl)-1H-pyrrole-3-carboxamide]
- IC50 (Bcl-2 protein): 25.2 nM
- IC50 [1]: 69 nM

SMILES: Cc1c(C(=O)N(c2ccccc2)c2cnc3c(ccn3C)c2)cc(-c2cc(Cl)ccc2C(=O)N2Cc3ccccc3C[C@H]2CN2CCOCC2)n1C [Example 390, 5-(5-Chloro-2-{[(3S)-3-(morpholin-4-ylmethyl)-3,4-dihydroisoquinolin-2(1H)-yl]carbonyl}phenyl)-1,2-dimethyl-N-(1-methyl-1H-pyrrolo[2,3-b]pyridin-5-yl)-N-phenyl-1H-pyrrole-3-carboxamide]
- IC50 (Bcl-2 protein): 21.2 nM
- IC50 [1]: 173 nM

SMILES: Cc1c(C(=O)N(c2ccccc2)c2ccc(O)cc2)cc(-c2cc(Cl)ccc2C(=O)N2Cc3ccccc3C[C@H]2CN2CCOCC2)n1C [Example 17, 5-(5-Chloro-2-{[(3S)-3-(morpholin-4-ylmethyl)-3,4-dihydroisoquinolin-2(1H)-yl]carbonyl}phenyl)-N-(4-hydroxyphenyl)-1,2-dimethyl-N-phenyl-1H-pyrrole-3-carboxamide hydrochloride]
- IC50 (Bcl-2 protein): 8 nM
- IC50 [1]: 75.2 nM
